The numbers were not newly measured in PubChem BioAssay AID1259410 (Chemical Carcinogenesis Research Information System (CCRIS), 2018), which cites them from elsewhere.

Numbered stars: 1 amine (or outer) side, 2 acyl side, 3 side chain; on linkers, the order of the positions; unused ones are H or OH. Square brackets hold non-standard residues; d marks the D form. Peptide text beside a SMILES is read from it. X1 = O=C(C(N[*:1])c1ccc(OS(=O)(=O)O)cc1)[*:2]

In the series the test system is rodent tumor promotion studies, tumor incidence. The experiment in a line: CCRIS tumor promotion studies.

For `CC(=O)OC/C=C(C)/C=C/C=C(C)/C=C/C1=C(C)CCCC1(C)C`, where the note is “Carcinogen: 3'-METHYL-4-DIMETHYLAMINOAZOBENZENE, 55-80-1, Doses [Carcinogen]: 0.06% IN DIET FOR 7 WK, Doses [Promoter]: 0, 6.25, 12.5, 25 MG 1/5 D FOR 10 WK ADMINISTERED 3 WK POST CARCINOGEN (STUDY DURATION: 25 WK), Doses [Promoter]: 0, 6.25, 12.5, 25 MG 1/5 D FOR 10 WK ADMINISTERED 3 WK POST CARCINOGEN (STUDY DURATION: 25 WK), Route [Carcinogen]: ORAL, Route [Promoter]: INTRAPERITONEAL, Species: RAT, Strain/Sex: DONRYU/MALE”, the outcome is “liver: hepatocellular carcinoma”.

For the molecule `CCC(C)C(NC(=O)C(CCCNC(=N)N)NC(=O)C(Cc1c[nH]cn1)NC(=O)C(CO)NC(=O)C1CCCN1C(=O)C(CC(=O)O)NC(=O)C(CC(C)C)NC(=O)C(CC(N)=O)NC(=O)C(CCC(N)=O)NC(=O)C(CC(C)C)NC(=O)C(CC(N)=O)NC(=O)C(CCCCN)NC(=O)C(NC(=O)C(NC(=O)C(CO)NC(=O)C(CCSC)NC(=O)C(CCCNC(=N)N)NC(=O)CNC(=O)C(CO)NC(=O)C1CCCN1C(=O)C(C)NC(=O)C(N)CCCCN)C(C)CC)C(C)C)C(=O)NC(CO)C(=O)NC(CC(=O)O)C(=O)NC(CCCNC(=N)N)C(=O)NC(CC(=O)O)C(=O)NC(C(=O)NC(CCSC)C(=O)NCC(=O)NC(Cc1c[nH]c2ccccc12)C(=O)NC(CCSC)C(=O)NC(CC(=O)O)C(=O)NC(Cc1ccccc1)C(N)=O)c1ccc(OS(=O)(=O)O)cc1` (stereo not drawn) (H-KAPSGRMSIVKNLQNLDPSHRISDRD[X1]MGWMDF-NH2; configuration not given here), the outcome is reported as “pancreas: adenoma” (Carcinogen: AZASERINE, 115-02-6, Doses [Carcinogen]: 30 MG/KG ON DAYS 19, 26, AND 54 OF AGE, Doses [Promoter]: 0, 2.5 UG/KG BW 1/D 3 D/WK FOR 8 MO BEGINNING 4 MO POST FIRST CARCINOGEN DOSE (STUDY DURATION: 8 MO), Route [Carcinogen]: INTRAPERITONEAL, Route [Promoter]: SUBCUTANEOUS, Species: RAT, Strain/Sex: WISTAR/MALE) and “pancreas: adenocarcinoma” (Carcinogen: N-NITROSOBIS(2-OXOPROPYL)AMINE, 60599-38-4, Doses [Carcinogen]: 5 MG/KG 1/WK FOR STUDY DURATION, Doses [Promoter]: 0, 30 IDU/KG 3 D/WK FOR 6 WK (STUDY DURATION: 15 WK), Route [Carcinogen]: SUBCUTANEOUS, Route [Promoter]: SUBCUTANEOUS, Species: HAMSTER, Strain/Sex: SYRIAN/MALE).

For the molecule `Clc1cccc(-c2ccc(Cl)c(Cl)c2Cl)c1Cl`, the outcome reads like this: (Carcinogen: 4-(METHYLNITROSAMINO)-1-(3-PYRIDYL)-1-BUTANONE, 64091-91-4, Doses [Carcinogen]: 50 MG/KG ON D 4 OF LIFE, Doses [Promoter]: 500 MG/KG ONCE ON D 56 OF LIFE (STUDY DURATION: 52 WK), Route [Carcinogen]: INTRAPERITONEAL, Route [Promoter]: INTRAGASTRIC, Species: MOUSE, Strain/Sex: SWISS/FEMALE) “lung: tumor”; (Carcinogen: 4-(METHYLNITROSAMINO)-1-(3-PYRIDYL)-1-BUTANONE, 64091-91-4, Doses [Carcinogen]: 100 MG/KG (0.5 MMOL) IN 0.9% STERILE SALINE ON DAYS 15, 17, AND 19 OF GESTATION, Doses [Promoter]: 0, 500 MG/KG IN OLIVE OIL ON POSTNATAL DAY 56 (STUDY DURATION: 72 WK), Route [Carcinogen]: TRANSPLACENTAL, Route [Promoter]: GAVAGE, Species: MOUSE, Strain/Sex: SWISS/MALE) “liver: hepatocellular adenoma or carcinoma”; (Carcinogen: 4-(METHYLNITROSAMINO)-1-(3-PYRIDYL)-1-BUTANONE, 64091-91-4, Doses [Carcinogen]: 100 MG/KG IN 0.9% SALINE ON GESTATION DAYS 15, 17 AND 19, Doses [Promoter]: 500 MG/KG ONCE ON D 56 OF LIFE TO OFFSPRING OF CARCINOGEN-TREATED MOTHERS (STUDY DURATION: 52 WK), Route [Carcinogen]: INTRAPERITONEAL, Route [Promoter]: INTRAGASTRIC, Species: MOUSE, Strain/Sex: SWISS/MALE) “lung: tumor”; (Carcinogen: DIETHYLNITROSAMINE, 55-18-5, Doses [Carcinogen]: 90 MG/KG BW ONCE, Doses [Promoter]: 0, 100 PPM IN DIET FOR 20 WK BEGINNING 3 WK POST CARCINOGEN DOSE (STUDY DURATION: 47 WK), Route [Carcinogen]: INTRAPERITONEAL, Route [Promoter]: ORAL, Species: MOUSE, Strain/Sex: C57BL/MALE) “liver: tumor”; (Carcinogen: DIETHYLNITROSAMINE, 55-18-5, Doses [Carcinogen]: 1100 PPM IN DIET FOR 1 YR, Doses [Promoter]: 0, 100 PPM IN DIET FOR 1 YR (STUDY DURATION: 1 YR), Route [Carcinogen]: ORAL, Route [Promoter]: ORAL, Species: FISH, Strain/Sex: RAINBOW TROUT/MALE, FEMALE) “liver: hepatocellular carcinoma”; (Carcinogen: DIISOPROPANOLNITROSAMINE [53609-64-6], Doses [Carcinogen]: SINGLE DOSE OF 2.5 G/KG BW, Doses [Promoter]: 100 PPM IN DIET BEGINNING 1 WK AFTER DIPN TREATMENT FOR 19 WKS (STUDY DURATION: 20 WKS), Route [Carcinogen]: SUBCUTANEOUS INJECTION, Route [Promoter]: DIET, Species: RAT, Strain/Sex: SPRAGUE-DAWLEY/MALE) “thyroid: carcinoma”. Moreover, the outcome is on record as “liver: hepatocellular adenoma, hepatocellular carcinoma” (Carcinogen: N-NITROSODIETHYLAMINE, 55-18-5, Doses [Carcinogen]: 90 MG/KG BW ONCE, Doses [Promoter]: 0, 175, 350 PPM IN DIET FOR 53 WK BEGINNING 2 WK POST CARCINOGEN DOSE (STUDY DURATION: 55 WK), Doses [Promoter]: 0, 175, 350 PPM IN DIET FOR 53 WK BEGINNING 2 WK POST CARCINOGEN DOSE (STUDY DURATION: 55 WK), Route [Carcinogen]: INTRAPERITONEAL, Route [Promoter]: ORAL, Species: MOUSE, Strain/Sex: D2B6F1/MALE); “lung: tumor” (Carcinogen: N-NITROSODIMETHYLAMINE, 62-75-9, Doses [Carcinogen]: 5 MG/KG IN SALINE ONCE AT 4 DAYS OF AGE, Doses [Promoter]: 0, 250 MG/KG IN OLIVE OIL ONCE AT 8 DAYS OF AGE (STUDY DURATION: 28 WK), Route [Carcinogen]: INTRAPERITONEAL, Route [Promoter]: GAVAGE, Species: MOUSE, Strain/Sex: SWISS/MALE); “lung: tumor; liver: tumor” (Carcinogen: N-NITROSODIMETHYLAMINE, 62-75-9, Doses [Carcinogen]: 5 MG/KG IN SALINE ONCE AT 4 DAYS OF AGE, Doses [Promoter]: 0, 250 MG/KG IN OLIVE OIL ONCE AT 8 DAYS OF AGE (STUDY DURATION: 52 WK), Route [Carcinogen]: INTRAPERITONEAL, Route [Promoter]: GAVAGE, Species: MOUSE, Strain/Sex: SWISS/MALE); “lung: tumor; liver: tumor” (Carcinogen: N-NITROSODIMETHYLAMINE, 62-75-9, Doses [Carcinogen]: 5 MG/KG ON D 4 OF LIFE, Doses [Promoter]: 500 MG/KG ONCE ON D 56 OF LIFE (STUDY DURATION: 52 WK), Route [Carcinogen]: INTRAPERITONEAL, Route [Promoter]: INTRAGASTRIC, Species: MOUSE, Strain/Sex: SWISS/MALE); “lung: tumor” (Carcinogen: N-NITROSODIMETHYLAMINE, 62-75-9, Doses [Carcinogen]: 10 MG/KG IN SALINE ON GESTATION D 19, Doses [Promoter]: 500 MG/KG ONCE ON D 56 OF LIFE TO OFFSPRING OF CARCINOGEN-TREATED MOTHERS (STUDY DURATION: 52 WK), Route [Carcinogen]: INTRAPERITONEAL, Route [Promoter]: INTRAGASTRIC, Species: MOUSE, Strain/Sex: SWISS/MALE).

Turning to `CSCC[C@H](NC(=O)[C@H](CC(C)C)NC(=O)CNC(=O)[C@H](Cc1ccccc1)NC(=O)[C@H](Cc1ccccc1)NC(=O)[C@H](CCC(N)=O)NC(=O)[C@H](CCC(N)=O)NC(=O)[C@@H]1CCCN1C(=O)[C@H](CCCCN)NC(=O)[C@@H]1CCCN1C(=O)[C@@H](N)CCCN=C(N)N)C(N)=O`, the outcome (Carcinogen: N-METHYL-N'-NITRO-N-NITROSOGUANIDINE, 70-25-7, Doses [Carcinogen]: 50 UG/ML IN DRINKING WATER FOR 25 WK, Doses [Promoter]: 0, 12 UG/KG BW 1/2 D FOR 26 WK BEGINNING POST CARCINOGEN TREATMENT (STUDY DURATION: 52 WK), Route [Carcinogen]: ORAL, Route [Promoter]: SUBCUTANEOUS, Species: RAT, Strain/Sex: WISTAR/MALE, FEMALE) is listed as “stomach: tumor”.

In the case of `C=CCS(=O)(=O)CC=C`, the outcome (Carcinogen: Vinyl carbamate, 15805-73-9, Doses [Carcinogen]: 60 mg/kg once 2 hr after inhibitor (Study duration: 25 wk), Doses [Promoter]: 50 mg/kg once at beginning of experiment (Study duration: 25 wk), Route [Carcinogen]: Intraperitoneal, Route [Promoter]: Oral, Species: Mouse, Strain/Sex: F1 (Big Blue x A/J) (43/?)/47/?)) is given as “lung: solid tumors (61 (42%), 135 (86.5%), p<0.01)”.

Consider `C=C(C)[C@@]12OC3(c4ccccc4)O[C@@H]1[C@@H]1[C@@H]4OC4(CO)[C@@H](O)[C@]4(O)C(=O)C(C)=C[C@H]4[C@@]1(O3)[C@H](C)[C@H]2OC(=O)/C=C/C=C/c1ccccc1` (stereo partly drawn), for which the outcome (Carcinogen: 7,12-DIMETHYLBENZ[A]ANTHRACENE, 57-97-6, Doses [Carcinogen]: 10 NMOL APPLIED TO BACK ONCE, Doses [Promoter]: 9 NMOL 2/WK FOR 19 WK BEGINNING 1 WK POST CARCINOGEN DOSE (STUDY DURATION: 40 WK), Route [Carcinogen]: DERMAL, Route [Promoter]: DERMAL, Species: MOUSE, Strain/Sex: HRA/SKH/FEMALE) is given as “skin: papilloma”.

Consider `O=NN(CCO)CCO`, for which, where the note is “Carcinogen: NITROSO(2-OXOPROPYL)AMINE, 60599-38-4, Doses [Carcinogen]: 12 MG/ML IN ETHYL ACETATE/CORN OIL (1:1) 2/WK FOR 2 WK, Doses [Promoter]: 0, 100 MG/L IN DRINKING WATER 5 D/WK FOR 40 WK BEGINNING 1/WK POST CARCINOGEN TREATMENT (STUDY DURATION: 43 WK), Route [Carcinogen]: GAVAGE, Route [Promoter]: ORAL, Species: RAT, Strain/Sex: F344/MALE”, the outcome is given as “kidney: renal cell carcinoma”.
